The target of this assay is T1, Acetylcholinesterase (Mus musculus, UniProt P21836).
T1 sequence (P21836 whole entry): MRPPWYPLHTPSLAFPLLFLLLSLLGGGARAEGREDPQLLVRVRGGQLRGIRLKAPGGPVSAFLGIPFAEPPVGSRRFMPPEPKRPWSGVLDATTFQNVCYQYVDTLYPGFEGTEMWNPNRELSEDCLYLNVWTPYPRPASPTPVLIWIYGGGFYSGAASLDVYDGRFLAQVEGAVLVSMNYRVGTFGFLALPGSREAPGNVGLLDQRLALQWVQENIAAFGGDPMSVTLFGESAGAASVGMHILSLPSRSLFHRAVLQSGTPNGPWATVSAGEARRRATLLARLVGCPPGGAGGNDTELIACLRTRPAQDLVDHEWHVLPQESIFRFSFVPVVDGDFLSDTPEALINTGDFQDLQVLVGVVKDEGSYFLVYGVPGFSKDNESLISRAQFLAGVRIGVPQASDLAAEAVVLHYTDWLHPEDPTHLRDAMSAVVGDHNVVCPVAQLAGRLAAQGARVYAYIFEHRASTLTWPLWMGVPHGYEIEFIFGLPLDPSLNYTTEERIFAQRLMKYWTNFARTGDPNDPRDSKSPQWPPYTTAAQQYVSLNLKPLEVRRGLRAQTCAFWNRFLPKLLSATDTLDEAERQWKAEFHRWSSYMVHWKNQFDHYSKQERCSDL
Kind of assay: AChE Assay. The note with it: pH 7.6; 20 °C. The protocol: The inactivation of AChEs was determined using a colorimetric assay [Ellman et al., Biochem. Pharmacol., 7:88-95]. […] DTNB solution and a solution of AChE yielding a 0.1 Abs unit/min rate in PBS (2.80 mL; pH 7.6) were placed in a cuvette at 20°C. To this solution was added either: (a) 10 μL of ACN as the control, or (b) 10 μL of ligand solution (10 mM in ACN). […] The final concentrations of the reactants during enzyme assay were: 0.33 mM DTNB, 0.59 mM ATCh-I, 0.58 mM NaHCO3, and 0.05 mM inhibitor.

In general, IC50 refers to the midpoint of a concentration-inhibition curve. Low values mean greater potency, high ones weaker potency. `C#CCNS(=O)(=O)c1ccc(C2=c3cc4c5c(c3Oc3c2cc2c6c3CCCN6CCC2)CCC[N+]=5CCC4)c(S(=O)(=O)[O-])c1` [Texas Red propargyl sulfonamide (7)] showed an IC50 of 700 nM. Then `C#CCNS(=O)(=O)c1ccc(-c2c3ccc(=[N+](CC)CC)cc-3oc3cc(N(CC)CC)ccc23)c(S(=O)(=O)[O-])c1` [Lissamine propargyl sulfonamide (6)], with 50 nM.

(Values after BindingDB's records for doi:10.3109/14756360903027816 (The University of Montana, 2010).)
